According to PMC9516332 (Frontiers in Oncology, 2022):

Assays:
Experiment in all cases: Kinase panel profiling at 1 µmol/L (MSA or IMAP), percentage inhibition
Assay type in all cases: biochemical
[1] = biological target: T1, panel of 255 wild-type kinases (Homo sapiens, UniProt O43781); settings: kinase DYRK3; 1 µmol/L single concentration; read-out: %-inhibition at 1 µmol/L, DYRK3
T1 sequence (O43781 1-588): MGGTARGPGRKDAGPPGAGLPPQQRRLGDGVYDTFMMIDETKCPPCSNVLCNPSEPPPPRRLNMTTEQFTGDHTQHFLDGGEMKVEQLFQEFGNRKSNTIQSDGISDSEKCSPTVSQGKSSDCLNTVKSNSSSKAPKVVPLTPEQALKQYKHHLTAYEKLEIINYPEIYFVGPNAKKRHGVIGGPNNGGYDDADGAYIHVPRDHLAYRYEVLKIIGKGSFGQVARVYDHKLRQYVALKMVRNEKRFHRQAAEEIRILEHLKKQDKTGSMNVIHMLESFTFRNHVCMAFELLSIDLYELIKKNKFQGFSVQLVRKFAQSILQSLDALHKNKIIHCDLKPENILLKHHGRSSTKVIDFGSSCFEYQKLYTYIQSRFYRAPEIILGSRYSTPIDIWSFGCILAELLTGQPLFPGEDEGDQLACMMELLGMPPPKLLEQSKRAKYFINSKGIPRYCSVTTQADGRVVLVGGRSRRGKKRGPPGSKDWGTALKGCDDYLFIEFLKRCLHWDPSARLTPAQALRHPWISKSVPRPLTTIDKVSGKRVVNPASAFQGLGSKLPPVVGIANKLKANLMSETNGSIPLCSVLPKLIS

[2] = biological target: panel of 255 wild-type kinases (Homo sapiens, UniProt P07333); settings: kinase FMS; 1 µmol/L single concentration; read-out: %-inhibition at 1 µmol/L, FMS
[3] = biological target: panel of 255 wild-type kinases (Homo sapiens, UniProt P17612); settings: kinase PKACα; 1 µmol/L single concentration; read-out: %-inhibition at 1 µmol/L, PKACα
[4] = biological target: panel of 255 wild-type kinases (Homo sapiens, UniProt P48729); settings: kinase CK1α; 1 µmol/L single concentration; read-out: %-inhibition at 1 µmol/L, CK1α
[5] = biological target: T2, panel of 255 wild-type kinases (Homo sapiens, UniProt P54760); settings: kinase EPHB4; 1 µmol/L single concentration; read-out: %-inhibition at 1 µmol/L, EPHB4
T2 sequence (P54760 16-987): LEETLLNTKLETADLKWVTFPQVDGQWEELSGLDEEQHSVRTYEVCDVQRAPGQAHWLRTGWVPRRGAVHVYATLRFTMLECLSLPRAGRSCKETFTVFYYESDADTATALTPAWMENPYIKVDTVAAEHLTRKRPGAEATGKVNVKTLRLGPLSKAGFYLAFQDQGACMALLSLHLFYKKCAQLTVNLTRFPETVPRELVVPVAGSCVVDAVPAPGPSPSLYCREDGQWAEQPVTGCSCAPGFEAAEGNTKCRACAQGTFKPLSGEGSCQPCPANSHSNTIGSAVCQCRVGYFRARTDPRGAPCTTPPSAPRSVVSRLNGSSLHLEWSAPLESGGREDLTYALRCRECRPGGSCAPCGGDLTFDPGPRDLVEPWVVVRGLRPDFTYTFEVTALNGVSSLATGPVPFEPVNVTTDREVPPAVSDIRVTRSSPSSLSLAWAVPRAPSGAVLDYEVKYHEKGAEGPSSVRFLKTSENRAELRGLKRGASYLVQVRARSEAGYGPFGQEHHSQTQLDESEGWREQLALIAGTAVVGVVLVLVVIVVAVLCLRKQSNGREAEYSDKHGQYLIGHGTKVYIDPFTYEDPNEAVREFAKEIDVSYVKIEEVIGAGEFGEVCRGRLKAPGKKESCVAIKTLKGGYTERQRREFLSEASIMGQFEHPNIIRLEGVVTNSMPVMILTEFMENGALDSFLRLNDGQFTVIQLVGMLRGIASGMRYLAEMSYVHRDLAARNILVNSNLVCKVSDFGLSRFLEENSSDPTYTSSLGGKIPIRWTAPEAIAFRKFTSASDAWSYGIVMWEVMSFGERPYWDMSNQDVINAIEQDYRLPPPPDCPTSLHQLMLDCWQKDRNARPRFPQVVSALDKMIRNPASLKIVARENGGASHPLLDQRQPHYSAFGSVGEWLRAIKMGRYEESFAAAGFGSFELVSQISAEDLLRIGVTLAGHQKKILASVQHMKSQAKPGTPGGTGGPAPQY

[6] = biological target: panel of 255 wild-type kinases (Homo sapiens, UniProt Q16644); settings: MAPKAPK3; 1 µmol/L single concentration; read-out: %-inhibition, MAPKAPK3
[7] = biological target: panel of 255 wild-type kinases (Homo sapiens, UniProt Q9HBH9); settings: MNK2; 1 µmol/L single concentration; read-out: %-inhibition, MNK2
[8] = biological target: panel of 255 wild-type kinases (Homo sapiens, UniProt Q9NYA1); settings: kinase SPHK1; 1 µmol/L single concentration; read-out: %-inhibition at 1 µmol/L, SPHK1

| Compound | inhibition at 1 µM [1] [%] | inhibition at 1 µM [2] [%] | inhibition at 1 µM [3] [%] | inhibition at 1 µM [4] [%] | inhibition at 1 µM [5] [%] | inhibition at 1 µM [6] [%] | inhibition at 1 µM [7] [%] | inhibition at 1 µM [8] [%] |
| --- | --- | --- | --- | --- | --- | --- | --- | --- |
| CO[C@]1(C(=O)N[C@@H](C)c2ccc(-n3cc(F)cn3)nc2)CC[C@H](c2nc(C)cc(Nc3cc(C)[nH]n3)n2)CC1 [pralsetinib] | -4.32 | 94 | 16 | -2.22 | 56 | -22 | 2 | 0.199 |
| C=CC(=O)N1CCC([C@@H]2CCNc3c(C(N)=O)c(-c4ccc(Oc5ccccc5)cc4)nn32)CC1 [zanubrutinib] | -6 | -7 | -13 | -0.607 | -2.82 | -12 | -5 | -15 |
